# According to paper PMC7340254, “Structure-based screening of binding affinities via small-angle X-ray scattering” (IUCrJ, 2020):
# Legend:
# [1] = biological target: T1, glutamine-binding protein (GlnBP) (Escherichia coli, UniProt P0AEQ3); assay: Isothermal titration calorimetry (ITC, this work); design: species or system E. coli; settings: 20°C, read-out: K D (ITC, this work)
# T1 construct: Uniprot entry P0AEQ3, residues 23–248; made in house; host or cells: E. coli BL21(DE3)
# Experimental: (§1) All ITC measurements were conducted on a Malvern MicroCal PEAQ ITC at 20°C with stirring at 200 rev min^−1 using the same buffer as in SAXS measurements. The cell was initially loaded with 200 µl of 20 µM protein with an initial ligand concentration of 200 µM in the syringe to quantify His:HisBP binding. This was further adjusted in subsequent runs to resolve weaker interactions as necessary.
# [2] = biological target: T1, glutamine-binding protein (GlnBP); assay: SAXS-based ligand titration; design: species or system E. coli; settings: ESRF, 3.0 × 10^12 photons, GlnBP 80 µM; 'no change' = no significant changes in scattering curves
# From the text: Their preliminary results have been excluded from this report.
# HisBP = biological target: HisBP; design: method as in Paul et al. (2016); settings: ref Paul et al. (2016), read-out: K D (ITC, literature); cited from earlier work
# GlnBP = biological target: GlnBP; design: method as in Clifton & Jackson (2016); settings: ref Clifton & Jackson (2016), read-out: K D (ITC, literature); cited from earlier work
# [3] = biological target: T2, histidine-binding protein (HisBP) (Escherichia coli, UniProt P0AEU0); assay: biochemical
# T2 sequence (P0AEU0 23-260): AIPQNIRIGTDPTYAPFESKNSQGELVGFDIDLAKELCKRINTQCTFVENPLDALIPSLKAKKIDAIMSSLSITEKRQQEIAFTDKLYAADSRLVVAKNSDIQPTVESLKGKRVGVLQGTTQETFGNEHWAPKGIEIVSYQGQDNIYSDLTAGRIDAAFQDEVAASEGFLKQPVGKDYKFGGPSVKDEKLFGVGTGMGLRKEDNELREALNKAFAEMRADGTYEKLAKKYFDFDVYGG
# Experimental: as §1
# [4] = biological target: T2, histidine-binding protein (HisBP); assay: biochemical; remark: listed apart in the source
# Experimental: Titrations were conducted at fixed protein concentrations to exclude signal-to-noise factors. An initial mass concentration of 2.0 or 4.0 mg ml^−1 was employed in prospective experiments, then scaled to 2.0, 1.0, 0.5 and 0.25 mg ml^−1 in later concentration-variation studies. […] A total of eight beamline experiments were conducted, using the automated sample changing environments available on site, operated in constant-flow mode: three times at ESRF BM29, three at DESY P12, once at Australian Synchrotron SAXS/WAXS and once at Diamond B21. […] Furthermore, experiments at ESRF BM29 and Diamond B21 were carried out on site, while the DESY P12 experiment was carried out by mail-in. For these measurements, samples were prepared by pipetting ligand–protein mixtures onto 96-well plates prior to transport. As for the Australian Synchrotron measurements, apo–HisBP was lyophilized in its final buffer and reconstituted on site using pure H2O and then mixed with the ligands in 96-well plates.
# Buffer-subtracted intensities provided from respective synchrotron pipelines were used as starting points for analysis. […] Thus, an intermediate value of 7.2 nm was fixed for all computations involving D max including V R.
# This was used to assist in locating data points affected by sample handling errors or measurement failures, along with detectable aggregation. The ideal minimum angle after removal of parasitic scattering is 0.1–0.15 nm^−1, although a more conservative cutoff was used to collectively eliminate residual aggregation. The maximum usable q was determined by visual inspection of noise. The final ranges used across all HisBP beamline sessions were: 0.2–2.0 nm^−1 at 20 µM and below, 0.25–2.5 nm^−1 at 40 µM, and 0.3–3 nm^−1 above 80 µM. The q-ranges for DEBP and GlnBP were set to 0.1–2.8 nm^−1.
# A common scattering reference is created per HisBP concentration and per beamline experiment by averaging apo protein replicates after discarding outliers. This reference is used for both V R and χlin computations.
# To fit binding curves against metrics, we consider all titrations conducted per protein concentration per beamline experiment as a single set, after removing data points resulting from aggregation, preparation errors or measurement errors. […] Since the two-state binding curve at constant [R] cannot effectively discriminate between K D values much larger or smaller than [R], fitted K D values are limited to within four orders of magnitude of the receptor concentration (cf. Fig. S1). […] Error bars indicate σ of logK D from the ensemble of replicate predictions. For metrics where uncertainty was not computed (V R and V P), the uncertainty was estimated by single-point removal, where K D was recomputed after removal of each titration point. The σ of the resulting replicates are taken as the σ of logK D. To eliminate cases where the fitting process fails due to ill-constrained parameters, replicates were discarded if the fitted apo–holo differences were >3σ from the mean value of all replicates.
# [5] = biological target: T2, histidine-binding protein (HisBP); assay: NMR chemical shift perturbation titration; design: Uniprot entry P0AEU0, residues 23–260; His6 tag with TEV cleavage site (N, cleaved yes); made in house; host or cells: E. coli BL21(DE3); species or system E. coli; settings: HisBP 200 µM, 298 K, chemical shift perturbations; read-out: K D (NMR)
# From the text: All NMR experiments have been carried out at 298 K on an 800 MHz Bruker Avance III NMR spectrometer equipped with a cryogenic probehead. […] Data were processed with NMRpipe (Delaglio et al., 1995[▸]), analyzed using NMRFAM-Sparky (Lee et al., 2015[▸]) and visualized with Python modules nmrglue and matplotlib (Helmus & Jaroniec, 2013[▸]; Hunter, 2007[▸]).
# Backbone assignments of apo- and His-bound HisBP have been derived from BMRB entries 19242 and 19245 (Chu et al., 2013[▸]). The assignment of Arg-bound HisBP is produced by extending the apo-HisBP assignment along titrations, leaving sites in slow exchange unassigned. For affinity computations based on chemical shift perturbations, ^1H and ^15N shifts have been combined to a composite shift δ = [(δH)^2 + (0.2δN)^2]^1/2. The derivation of an overall dissociation constant from chemical shift perturbations follows the work by Williamson (2013[▸]), where the shift in peak position is used to derive free and bound populations without considering peak intensities. The effect of site-specific exchange rates upon peak positions is taken into account (London, 1993[▸]). We discarded residues with either insignificant shifts at saturation (δ < 0.05) or which were in slow exchange such that peak positions alone were no longer informative. […]
# T1 sequence (P0AEQ3 23-248): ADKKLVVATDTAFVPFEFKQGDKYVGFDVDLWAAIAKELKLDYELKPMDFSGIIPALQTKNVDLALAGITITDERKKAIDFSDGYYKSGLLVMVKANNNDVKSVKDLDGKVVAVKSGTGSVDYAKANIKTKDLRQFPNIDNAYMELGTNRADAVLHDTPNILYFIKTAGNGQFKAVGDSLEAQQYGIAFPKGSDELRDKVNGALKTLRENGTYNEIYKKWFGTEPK
structure (smiles),measurement,setting,value
"N=C(N)NCCC[C@H](N)C(=O)O [Arg, arginine]",Kd,[1],78900 ± 8600 nM
same,K D derived from V R titration curves (result in words),[2],No change
same,Kd,HisBP,3000 ± 1000 nM
same,Kd,GlnBP,93800 ± 7400 nM
same,Kd,[3],2060 ± 220 nM
same,Kd,"[4]; K D fitted to SAXS V R titration curves, AustSynch, 20s exposure, […] 10^13 photons, HisBP 19 µM",2800 ± 310 nM
same,Kd,"[4]; K D fitted to SAXS V R titration curves, AustSynch, 20s exposure, […] 10^13 photons, HisBP 38 µM",3000 ± 1400 nM
same,Kd,"[4]; K D fitted to SAXS V R titration curves, AustSynch, 20s exposure, […] 10^13 photons, HisBP 76 µM",5500 ± 1400 nM
same,Kd,"[4]; K D fitted to SAXS V R titration curves, DESY, 4s exposure, […] 10^13 photons, HisBP 20 µM",33000 ± 4500 nM
same,Kd,"[4]; K D fitted to SAXS V R titration curves, DESY, 4s exposure, […] 10^13 photons, HisBP 40 µM",74000 ± 19000 nM
same,Kd,"[4]; K D fitted to SAXS V R titration curves, DESY, 4s exposure, […] 10^13 photons, HisBP 80 µM",5900 ± 600 nM
same,Kd,"[4]; K D fitted to SAXS V R titration curves, Diamond, 40s exposure, […] 10^14 photons, HisBP 10 µM",370 ± 140 nM
same,Kd,"[4]; K D fitted to SAXS V R titration curves, Diamond, 40s exposure, […] 10^14 photons, HisBP 20 µM",920 ± 110 nM
same,Kd,"[4]; K D fitted to SAXS V R titration curves, Diamond, 40s exposure, […] 10^14 photons, HisBP 40 µM",4800 ± 480 nM
same,Kd,"[4]; K D fitted to SAXS V R titration curves, Diamond, 40s exposure, […] 10^14 photons, HisBP 80 µM",7300 ± 1900 nM
same,Kd,"[4]; K D fitted to SAXS V R titration curves, ESRF, 5s exposure, 3.0 × 10^12 photons, HisBP 38 µM",2000 ± 1900 nM
same,Kd,"[4]; K D fitted to SAXS V R titration curves, ESRF, 5s exposure, 3.0 × 10^12 photons, HisBP 160 µM",710 ± 1000 nM
same,Kd,"[4]; KD fitted to SAXS Rg curves, AustSynch, 20s exposure, HisBP 19 µM",7700 ± 2000 nM
same,Kd,"[4]; KD fitted to SAXS Rg curves, AustSynch, 20s exposure, HisBP 38 µM",52 ± 40 nM
same,Kd,"[4]; KD fitted to SAXS Rg curves, AustSynch, 20s exposure, HisBP 76 µM",1600 nM
same,Kd,"[4]; KD fitted to SAXS Rg curves, DESY, 4s exposure, HisBP 20 µM",15000 ± 6800 nM
same,Kd,"[4]; KD fitted to SAXS Rg curves, DESY, 4s exposure, HisBP 40 µM",150000 ± 52000 nM
same,Kd,"[4]; KD fitted to SAXS Rg curves, DESY, 4s exposure, HisBP 80 µM",27000 ± 7100 nM
same,Kd,"[4]; KD fitted to SAXS Rg curves, Diamond, 40s exposure, HisBP 20 µM",810 nM
same,Kd,"[4]; KD fitted to SAXS Rg curves, Diamond, 40s exposure, HisBP 40 µM",1500 ± 4400 nM
same,Kd,"[4]; KD fitted to SAXS Rg curves, Diamond, 40s exposure, HisBP 80 µM",1100 ± 2500 nM
same,Kd,"[4]; KD fitted to SAXS Rg curves, ESRF, 5s exposure, HisBP 38 µM",2600 nM
same,Kd,"[4]; KD fitted to SAXS Rg curves, ESRF, 5s exposure, HisBP 160 µM",390 ± 280 nM
same,Kd,"[4]; KD fitted to SAXS Vc curves, AustSynch, 20s exposure, HisBP 19 µM",2100 ± 6000 nM
same,Kd,"[4]; KD fitted to SAXS Vc curves, AustSynch, 20s exposure, HisBP 38 µM",3700 ± 6600 nM
same,Kd,"[4]; KD fitted to SAXS Vc curves, AustSynch, 20s exposure, HisBP 76 µM",2000 nM
same,Kd,"[4]; KD fitted to SAXS Vc curves, DESY, 4s exposure, HisBP 20 µM",6300 nM
same,Kd,"[4]; KD fitted to SAXS Vc curves, DESY, 4s exposure, HisBP 80 µM",17 ± 41 nM
same,Kd,"[4]; KD fitted to SAXS Vc curves, Diamond, 40s exposure, HisBP 20 µM",6300 nM
same,Kd,"[4]; KD fitted to SAXS Vc curves, Diamond, 40s exposure, HisBP 80 µM",38 nM
same,Kd,"[4]; KD fitted to SAXS Vc curves, ESRF, 5s exposure, HisBP 7.6 µM",280 ± 720 nM
same,Kd,"[4]; KD fitted to SAXS Vc curves, ESRF, 5s exposure, HisBP 38 µM",75 nM
same,Kd,"[4]; KD fitted to SAXS Vc curves, ESRF, 5s exposure, HisBP 160 µM",910 nM
same,Kd,"[4]; KD fitted to SAXS χlin. curves, AustSynch, 20s exposure, HisBP 19 µM",11000 ± 7600 nM
same,Kd,"[4]; KD fitted to SAXS χlin. curves, AustSynch, 20s exposure, HisBP 38 µM",10000 ± 2000 nM
same,Kd,"[4]; KD fitted to SAXS χlin. curves, AustSynch, 20s exposure, HisBP 76 µM",11000 ± 1400 nM
same,Kd,"[4]; KD fitted to SAXS χlin. curves, DESY, 4s exposure, HisBP 20 µM",4100 ± 2100 nM
same,Kd,"[4]; KD fitted to SAXS χlin. curves, DESY, 4s exposure, HisBP 40 µM",140000 ± 42000 nM
same,Kd,"[4]; KD fitted to SAXS χlin. curves, DESY, 4s exposure, HisBP 80 µM",42000 ± 6700 nM
same,Kd,"[4]; KD fitted to SAXS χlin. curves, Diamond, 40s exposure, HisBP 20 µM",1400 nM
same,Kd,"[4]; KD fitted to SAXS χlin. curves, Diamond, 40s exposure, HisBP 40 µM",23000 ± 7100 nM
same,Kd,"[4]; KD fitted to SAXS χlin. curves, Diamond, 40s exposure, HisBP 80 µM",12 ± 20 nM
same,Kd,"[4]; KD fitted to SAXS χlin. curves, ESRF, 5s exposure, HisBP 7.6 µM",1900 ± 2000 nM
same,Kd,"[4]; KD fitted to SAXS χlin. curves, ESRF, 5s exposure, HisBP 152 µM",91 nM
same,Kd,[5],560 nM
